Data as given in patent US8476198B2, “Fungicidal composition” (Valent BioSciences Corporation, priority 2009, dated 2013).
Structures can show the parent of a compound that is named as a salt.

How the values were obtained:
[1] = test system: Fusarium solani f. sp. pisi; assay: Seed treatment effect against Fusarium solani f. sp. pisi (Fusarium root rot of pea); format: in vivo, Fusarium solani f. sp. pisi on pea; conditions: 16 days
Procedure: Seed treatment effect against Fusarium solani f. sp. pisi (Fusarium root rot of pea)
PESA and metconazole were diluted with DMSO respectively and mixed with each other to obtain the desired material mixture. Then, this suspension was applied to pea seeds. The PESA solution and the metconazole solution were applied to seeds respectively for control, and DMSO for untreated control. The seeds were dried and planted in soil that was inoculated with Fusarium solani f. sp. pisi. After growing at 20-24° C. in a greenhouse, for 16 days, symptoms were investigated and the frequency of disease and % control were calculated. The fungicide interactions in the combinations are calculated according to […] formula: E=X+Y−(X*Y)/100 • X=% action by active ingredient A using P ppm of active ingredient • Y=% action by active ingredient B using Q ppm of active ingredient • E=expected % action by active ingredients A and B using P and Q ppm of active ingredients If the action actually observed (O) is greater than the expected action (E), than the action of the combination is super-additive, i.e. there is a synergistic effect. In mathematical terms, synergism corresponds to a value of more than 100 for the ratio of O/E, said ratio O/E of less than 100 signals a loss of activity compared to the expected activity. Synergy Effect=(Observed/Expected)*100

[2] = test system: cotton seedlings; assay: Pouch assay: main root length of cotton seedlings from treated seeds; format: in vivo; conditions: for Root Length (cm): 6 day-old cotton seedlings
Procedure: Seeds of cotton were treated with PESA salt and/or triadimenol (BAYTAN® 30 Flowable Fungicide, Bayer Crop Science, RTP, NC USA). These were assayed in the pouch assay as described above.

Compound: CC1(C)CCC(Cc2ccc(Cl)cc2)C1(O)Cn1cncn1 (stereo not drawn) [Metconazole, metconazole, reference compound]
- Observed action (% control) ([1]; metconazole 0.2 gai/100 kg seed): 55 % control
- Observed action (% control) ([1]; metconazole 1 gai/100 kg seed): 73 % control

Compound: O=C(O)CCC(=O)NCCc1ccccc1 [PESA salt]
- Root Length (cm) ([2]; 25 g ai PESA salt/100 lbs. of seed, triadimenol 0): 14.8 cm
- Root Length (cm) ([2]; 50 g ai PESA salt/100 lbs. of seed, triadimenol 0): 14.3 cm
- Effect of adding PESA salt on the fungicide's negative effect on cotton root growth ([2]; cotton seed treatment, conclusion in words from Table 2): protects or safens cotton from the negative effects of the fungicide on root growth

Compound: O=C(O)CCC(=O)NCCc1ccccc1 [PESA, N-(2-phenylethyl)succinamic acid]
- Observed action (% control) ([1]; PESA 2 gai/100 kg seed, inoculated soil): 0 % control
- Observed action (% control) ([1]; PESA 10 gai/100 kg seed, inoculated soil): 9 % control

Compound: CC(C)(C)C(O)C(Oc1ccc(Cl)cc1)n1cncn1 (stereo not drawn) [Triadimenol, triadimenol, reference compound]
- Root Length (cm) ([2]; triadimenol 28.2 g ai/100 lbs. of seed, 0 g ai PESA salt): 12.8 cm
- Root Length (cm) ([2]; triadimenol 56.4 g ai/100 lbs. of seed, 0 g ai PESA salt): 12.3 cm
